From PMC5517430, “2,3,7,8-Tetrachlorodibenzo-p-dioxin (TCDD)-elicited effects on bile acid homeostasis: Alterations in biosynthesis, enterohepatic circulation, and microbial metabolism” (Scientific Reports, 2017)

Test system: hepatic gene expression
Assay: Hepatic RNA-Seq differential gene expression (fold change, P1(t), ED50, BMD, BMDL)
Assay type: in vivo, mouse
Method: Frozen ileal epithelium scrapings and liver samples were homogenized in TRIzol (Ambion, Waltham, MA) using a Mixer Mill 300 tissue homogenizer (Retsch, Germany) and total RNA was isolated as previously described. RNA was quantified using a Nano-drop spectrophotometer (Thermo Scientific, Wilmington, DE) at 260 nm, and purity was assessed using the A260/A280 ratio and the Caliper LabChip GX (Perkin Elmer, Waltham, MA).
Dose-dependent gene expression was examined using RNA-Seq performed at the MSU Research Technology Support Facility (RTSF) Genomics Core (rtsf.natsci.msu.edu/genomics). Ileal libraries from three independent biological replicates (n = 3) were prepared using the Ovation Mouse RNA-Seq System 1–16 sample preparation kit (NuGen, San Carlos, CA), with an additional DNase step. Libraries were quantified and sequenced as previously described, using a read depth of ~30 M per sample[33], [67]. Quality was determined using FASTQC v0.11.3 and adaptor sequences were removed using Trimmomatic v0.33. Reads were mapped to the mouse reference genome (GRCm38 release 81) using Bowtie2 v2.2.6 and TopHat2 v2.1.0. Alignments were converted to SAM format using SAMTools v1.2.0. For TCDD-mediated differential gene expression, fold changes were calculated relative to vehicle controls. Hepatic RNA-Seq analysis was previously published. Genes were considered differentially expressed if |fold change| ≥ 1.5 and statistical P1(t) value ≥ 0.8 at one or more doses. RNA-Seq datasets for the ileal epithelium and liver were deposited in the Gene Expression Omnibus (GEO; accession number GSE89430 and GSE87519, respectively). The RNA-Seq results (fold changes, P1(t) values) for each gene discussed in the manuscript have been compiled in Supplementary Table S1. […] Estimation of benchmark dose (BMD) and BMD lower confidence limit (BMDL) was performed using BMDExpress[69] as previously described, and has been included in Supplementary Table S1.

[1] = liver, 0.01 µg/kg TCDD, relative to vehicle control
[2] = liver, 0.03 µg/kg TCDD, relative to vehicle control
[3] = liver, 0.1 µg/kg TCDD, relative to vehicle control
[4] = liver, 0.3 µg/kg TCDD, relative to vehicle control
[5] = liver, 1 µg/kg TCDD, relative to vehicle control
[6] = liver, 3 µg/kg TCDD, relative to vehicle control
[7] = liver, 10 µg/kg TCDD, relative to vehicle control
[8] = liver, 30 µg/kg TCDD, relative to vehicle control
[9] = male mice, 30 µg/kg TCDD every 4 d for 28 d
[10] = male mice, TCDD every 4 d for 28 d

Clc1cc2c(cc1Cl)Oc1cc(Cl)c(Cl)cc1O2 [TCDD, 2,3,7,8-tetrachlorodibenzo-p-dioxin]
Slc6a6 (TAUT) BMD (liver): 11.24 µg/kg TCDD
Slc6a6 (TAUT) BMDL (liver): 8.25 µg/kg TCDD
Slc6a6 (TAUT) Differentially Expressed? (liver): YES
Slc6a6 (TAUT) ED50 (liver): 13.27 µg/kg TCDD
Slc10a1 (NTCP or LBAT) BMD (liver): 9.13 µg/kg TCDD
Slc10a1 (NTCP or LBAT) BMDL (liver): 4.73 µg/kg TCDD
Slc10a1 (NTCP or LBAT) Differentially Expressed? (liver): YES
Slc10a1 (NTCP or LBAT) ED50 (liver): 14.43 µg/kg TCDD
Slc27a5 BMD (liver): 4.42 µg/kg TCDD
Slc27a5 BMDL (liver): 3.04 µg/kg TCDD
Slc27a5 Differentially Expressed? (liver): YES
Slc27a5 ED50 (liver): 11.65 µg/kg TCDD
Slco1a1 (OATP1A1) BMD (liver): 8.64 µg/kg TCDD
Slco1a1 (OATP1A1) BMDL (liver): 3.68 µg/kg TCDD
Slco1a1 (OATP1A1) Differentially Expressed? (liver): YES
Slco1a1 (OATP1A1) ED50 (liver): 10.06 µg/kg TCDD
Slco1a4 (OATP1A4) BMD (liver): 0.56 µg/kg TCDD
Slco1a4 (OATP1A4) BMDL (liver): 0.000105 µg/kg TCDD
Slco1a4 (OATP1A4) Differentially Expressed? (liver): YES
Slco1a4 (OATP1A4) ED50 (liver): Not sigmoidal
Slco1b2 (OATP1B2) BMD (liver): 6.99 µg/kg TCDD
Slco1b2 (OATP1B2) BMDL (liver): 4.27 µg/kg TCDD
Slco1b2 (OATP1B2) Differentially Expressed? (liver): YES
Slco1b2 (OATP1B2) ED50 (liver): 12.87 µg/kg TCDD
Slco2b1 (OATP2B1) BMD (liver): 4.52 µg/kg TCDD
Slco2b1 (OATP2B1) BMDL (liver): 2.69 µg/kg TCDD
Slco2b1 (OATP2B1) Differentially Expressed? (liver): YES
Slco2b1 (OATP2B1) ED50 (liver): 11.16 µg/kg TCDD
Soat1 BMD (liver): No model fit
Soat1 BMDL (liver): No model fit
Soat1 Differentially Expressed? (liver): YES
Soat1 ED50 (liver): 8.88 µg/kg TCDD
Soat2 BMD (liver): 7.18 µg/kg TCDD
Soat2 BMDL (liver): 5.55 µg/kg TCDD
Soat2 Differentially Expressed? (liver): YES
Soat2 ED50 (liver): Not sigmoidal
Sqle BMD (liver): No model fit
Sqle BMDL (liver): No model fit
Sqle Differentially Expressed? (liver): YES
Sqle ED50 (liver): 19.37 µg/kg TCDD
Srebf2 BMD (liver): 8.52 µg/kg TCDD
Srebf2 BMDL (liver): 4.75 µg/kg TCDD
Srebf2 Differentially Expressed? (liver): YES
Srebf2 ED50 (liver): 15.74 µg/kg TCDD
Sult2a8 BMD (liver): 1.73 µg/kg TCDD
Sult2a8 BMDL (liver): 1.40 µg/kg TCDD
Sult2a8 Differentially Expressed? (liver): YES
Sult2a8 ED50 (liver): 11.63 µg/kg TCDD
Tm7sf2 BMD (liver): 14.47 µg/kg TCDD
Tm7sf2 BMDL (liver): 11.85 µg/kg TCDD
Tm7sf2 Differentially Expressed? (liver): YES
Tm7sf2 ED50 (liver): 17.41 µg/kg TCDD
Slc6a6 (TAUT) FC_0.01 [1]: 0.98
Slc10a1 (NTCP or LBAT) FC_0.01 [1]: 1.06
Slc27a5 FC_0.01 [1]: 0.96
Slco1a1 (OATP1A1) FC_0.01 [1]: 1.85
Slco1a4 (OATP1A4) FC_0.01 [1]: 0.83
Slco1b2 (OATP1B2) FC_0.01 [1]: 0.99
Slco2b1 (OATP2B1) FC_0.01 [1]: 1.02
Soat1 FC_0.01 [1]: 0.61
Soat2 FC_0.01 [1]: 1.08
Sqle FC_0.01 [1]: 1.57
Srebf2 FC_0.01 [1]: 1.04
Sult2a8 FC_0.01 [1]: 1.07
Tm7sf2 FC_0.01 [1]: 1.06
Slc6a6 (TAUT) FC_0.03 [2]: 0.99
Slc10a1 (NTCP or LBAT) FC_0.03 [2]: 1.13
Slc27a5 FC_0.03 [2]: 0.89
Slco1a1 (OATP1A1) FC_0.03 [2]: 1.27
Slco1a4 (OATP1A4) FC_0.03 [2]: 0.81
Slco1b2 (OATP1B2) FC_0.03 [2]: 1.11
Slco2b1 (OATP2B1) FC_0.03 [2]: 0.97
Soat1 FC_0.03 [2]: 0.71
Soat2 FC_0.03 [2]: 1.02
Sqle FC_0.03 [2]: 1.40
Srebf2 FC_0.03 [2]: 1.10
Sult2a8 FC_0.03 [2]: 1.00
Tm7sf2 FC_0.03 [2]: 0.92
Slc6a6 (TAUT) FC_0.1 [3]: 1.04
Slc10a1 (NTCP or LBAT) FC_0.1 [3]: 0.87
Slc27a5 FC_0.1 [3]: 0.83
Slco1a1 (OATP1A1) FC_0.1 [3]: 0.82
Slco1a4 (OATP1A4) FC_0.1 [3]: 0.42
Slco1b2 (OATP1B2) FC_0.1 [3]: 1.02
Slco2b1 (OATP2B1) FC_0.1 [3]: 0.91
Soat1 FC_0.1 [3]: 1.03
Soat2 FC_0.1 [3]: 1.01
Sqle FC_0.1 [3]: 1.57
Srebf2 FC_0.1 [3]: 1.00
Sult2a8 FC_0.1 [3]: 0.89
Tm7sf2 FC_0.1 [3]: 0.82
Slc6a6 (TAUT) FC_0.3 [4]: 1.15
Slc10a1 (NTCP or LBAT) FC_0.3 [4]: 1.02
Slc27a5 FC_0.3 [4]: 0.88
Slco1a1 (OATP1A1) FC_0.3 [4]: 1.03
Slco1a4 (OATP1A4) FC_0.3 [4]: 0.87
Slco1b2 (OATP1B2) FC_0.3 [4]: 1.08
Slco2b1 (OATP2B1) FC_0.3 [4]: 0.92
Soat1 FC_0.3 [4]: 0.85
Soat2 FC_0.3 [4]: 1.22
Sqle FC_0.3 [4]: 2.08
Srebf2 FC_0.3 [4]: 1.06
Sult2a8 FC_0.3 [4]: 0.81
Tm7sf2 FC_0.3 [4]: 1.05
Slc6a6 (TAUT) FC_1 [5]: 1.28
Slc10a1 (NTCP or LBAT) FC_1 [5]: 1.21
Slc27a5 FC_1 [5]: 0.86
Slco1a1 (OATP1A1) FC_1 [5]: 1.33
Slco1a4 (OATP1A4) FC_1 [5]: 0.45
Slco1b2 (OATP1B2) FC_1 [5]: 1.13
Slco2b1 (OATP2B1) FC_1 [5]: 1.01
Soat1 FC_1 [5]: 0.53
Soat2 FC_1 [5]: 1.23
Sqle FC_1 [5]: 1.92
Srebf2 FC_1 [5]: 0.99
Sult2a8 FC_1 [5]: 0.89
Tm7sf2 FC_1 [5]: 0.89
Slc6a6 (TAUT) FC_3 [6]: 1.14
Slc10a1 (NTCP or LBAT) FC_3 [6]: 1.09
Slc27a5 FC_3 [6]: 0.81
Slco1a1 (OATP1A1) FC_3 [6]: 1.24
Slco1a4 (OATP1A4) FC_3 [6]: 0.40
Slco1b2 (OATP1B2) FC_3 [6]: 0.92
Slco2b1 (OATP2B1) FC_3 [6]: 0.90
Soat1 FC_3 [6]: 0.77
Soat2 FC_3 [6]: 1.08
Sqle FC_3 [6]: 1.74
Srebf2 FC_3 [6]: 0.93
Sult2a8 FC_3 [6]: 0.65
Tm7sf2 FC_3 [6]: 1.24
Slc6a6 (TAUT) FC_10 [7]: 1.16
Slc10a1 (NTCP or LBAT) FC_10 [7]: 0.56
Slc27a5 FC_10 [7]: 0.48
Slco1a1 (OATP1A1) FC_10 [7]: 0.0276
Slco1a4 (OATP1A4) FC_10 [7]: 0.46
Slco1b2 (OATP1B2) FC_10 [7]: 0.65
Slco2b1 (OATP2B1) FC_10 [7]: 0.40
Soat1 FC_10 [7]: 1.16
Soat2 FC_10 [7]: 0.80
Sqle FC_10 [7]: 2.07
Srebf2 FC_10 [7]: 0.85
Sult2a8 FC_10 [7]: 0.12
Tm7sf2 FC_10 [7]: 0.97
Slc6a6 (TAUT) FC_30 [8]: 1.84
Slc10a1 (NTCP or LBAT) FC_30 [8]: 0.056
Slc27a5 FC_30 [8]: 0.06
Slco1a1 (OATP1A1) FC_30 [8]: 0.000843
Slco1a4 (OATP1A4) FC_30 [8]: 0.40
Slco1b2 (OATP1B2) FC_30 [8]: 0.13
Slco2b1 (OATP2B1) FC_30 [8]: 0.08
Soat1 FC_30 [8]: 3.59
Soat2 FC_30 [8]: 0.51
Sqle FC_30 [8]: 0.23
Srebf2 FC_30 [8]: 0.37
Sult2a8 FC_30 [8]: 0.00374
Tm7sf2 FC_30 [8]: 0.0549
Fgfr4 hepatic expression, fold repression [9]: 4.7 fold
Hmgcr hepatic expression [9]: no significant induction
Klb hepatic expression, fold repression [9]: 8.1 fold
Srebf2 hepatic expression, fold repression [9]: 2.7 fold
Hmgcr hepatic expression, max fold induction (male mice, 0.3–10 µg/kg TCDD every 4 d for 28 d): 3.4 fold
Abcb11 hepatic expression, fold repression [10]: 4.7 fold
Abcc2 hepatic expression [10]: unchanged
Akr1c6 hepatic expression, fold repression [10]: 22.1 fold
Akr1d1 hepatic expression, fold repression [10]: 16.3 fold
Amacr hepatic expression, fold repression [10]: 3.3 fold
Baat hepatic expression, fold repression [10]: 12.0 fold
Cdo1 hepatic expression, fold repression [10]: 2.7 fold
Ch25h hepatic expression, fold induction [10]: 6.1 fold
Csad hepatic expression, fold repression [10]: 4.5 fold
Cyp3a11 hepatic expression, fold repression [10]: 4.9 fold
Cyp3a13 hepatic expression, fold repression [10]: 17.0 fold
Cyp3a16 hepatic expression, fold repression [10]: 5.2 fold
Cyp3a25 hepatic expression, fold repression [10]: 6.0 fold
Cyp3a44 hepatic expression, fold repression [10]: 3.0 fold
Cyp3a57 hepatic expression, fold repression [10]: 2.4 fold
Cyp3a59 hepatic expression, fold repression [10]: 4.4 fold
Cyp7a1 hepatic expression, fold repression [10]: 39.7 fold
Cyp7b1 hepatic expression, fold repression [10]: 7.6 fold
Cyp8b1 hepatic expression, fold repression [10]: 4.4 fold
Cyp27a1 hepatic expression, fold repression [10]: 2.4 fold
Cyp46a1 hepatic expression, fold repression [10]: 2.1 fold
Hsd3b7 hepatic expression, fold repression [10]: 2.5 fold
Nr0b2 hepatic expression, fold repression [10]: 22.2 fold
Nr1h4 hepatic expression, fold repression [10]: 3.2 fold
Scp2 hepatic expression, fold repression [10]: 3.4 fold
Slc10a1 hepatic expression, fold repression [10]: 17.9 fold
Slc27a5 hepatic expression, fold repression [10]: 16.0 fold
Slco1a1 hepatic expression, fold repression [10]: 1186.3 fold
Slco1a4 hepatic expression, fold repression [10]: 2.5 fold
Slco1b2 hepatic expression, fold repression [10]: 7.9 fold
Slco2b1 hepatic expression, fold repression [10]: 12.9 fold
Sult2a8 hepatic expression, fold repression [10]: 267.5 fold
